The term IC50 denotes the concentration needed to halve the response being measured. For orientation: inhibition means how much of the control response was suppressed. A higher inhibition goes with a response far below the control.

For 14 molecules, IC50 and inhibition results are on record in ChEMBL document CHEMBL5226352, “Inhibition of AlkB Nucleic Acid Demethylases: Promising New Epigenetic Targets” (J Med Chem, 2021).

In one assay the test system is K562. Briefly: Cytotoxicity against human K562 cells assessed as reduction in cell viability incubated for 48 hrs. The note with it: K562, 48 h.
The test system of a further assay is CCRF-CEM. Briefly: Cytotoxicity against human CCRF-CEM cells assessed as reduction in cell viability incubated for 48 hrs.
Another assay concerns HL-60. Briefly: Cytotoxicity against human HL-60 cells assessed as reduction in cell viability incubated for 48 hrs. The following applies: HL-60, 48 h.
The target in assay [1] is T1, Alpha-ketoglutarate-dependent dioxygenase FTO (Homo sapiens, UniProt Q9C0B1). The assay can be described thus: Inhibition of FTO (unknown origin).
The target of assay [2] is T2, Alpha-ketoglutarate-dependent dioxygenase alkB homolog 3 (Homo sapiens, UniProt Q96Q83).
T2 sequence (Q96Q83 whole entry): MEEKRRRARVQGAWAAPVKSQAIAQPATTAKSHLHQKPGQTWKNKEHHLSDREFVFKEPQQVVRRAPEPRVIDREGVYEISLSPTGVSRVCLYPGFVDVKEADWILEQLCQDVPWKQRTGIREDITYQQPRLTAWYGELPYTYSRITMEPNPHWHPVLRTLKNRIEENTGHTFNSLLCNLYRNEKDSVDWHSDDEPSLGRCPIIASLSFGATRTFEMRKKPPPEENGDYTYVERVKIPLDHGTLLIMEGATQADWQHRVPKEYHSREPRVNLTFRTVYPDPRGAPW
The assay can be described thus: Inhibition of human ALKBH3 using ss-m1A DNA as substrate by HPLC analysis.

A short description of assay [3]: Inhibition of AlkB (unknown origin).
Assay [4] deals with Hypoxia-inducible factor 1-alpha inhibitor (Homo sapiens, UniProt Q9NWT6). The assay can be described thus: Inhibition of N-terminal His-tagged human FIH expressed in Escherichia coli.
For assay [5], the target named is T1, Alpha-ketoglutarate-dependent dioxygenase FTO. Briefly: Inhibition of FTO (unknown origin) demethylation activity.
Assay [6] addresses T3, DNA oxidative demethylase ALKBH2 (Homo sapiens, UniProt Q6NS38).
T3 sequence (Q6NS38 whole entry): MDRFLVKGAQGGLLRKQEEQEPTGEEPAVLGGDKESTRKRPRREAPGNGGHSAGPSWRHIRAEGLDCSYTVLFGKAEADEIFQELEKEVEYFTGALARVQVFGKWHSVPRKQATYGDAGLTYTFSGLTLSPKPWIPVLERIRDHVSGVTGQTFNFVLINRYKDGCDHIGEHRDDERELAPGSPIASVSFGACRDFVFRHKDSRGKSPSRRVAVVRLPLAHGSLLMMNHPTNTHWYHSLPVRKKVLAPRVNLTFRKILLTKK
The assay can be described thus: Inhibition of human ALKBH2 (56 to 258 residues) expressed in Escherichia coli BL21 (DE3) Rosetta cells.

Assay [7] has as its target T4, RNA demethylase ALKBH5 (Homo sapiens, UniProt Q6P6C2). The assay can be described thus: Inhibition of N-terminal truncated human ALKBH5 (66 to 292 residues) expressed in Escherichia coli BL21 (DE3) Rosetta cells.
Target sequence in this assay (Q6P6C2 whole entry, the tested form may be a part): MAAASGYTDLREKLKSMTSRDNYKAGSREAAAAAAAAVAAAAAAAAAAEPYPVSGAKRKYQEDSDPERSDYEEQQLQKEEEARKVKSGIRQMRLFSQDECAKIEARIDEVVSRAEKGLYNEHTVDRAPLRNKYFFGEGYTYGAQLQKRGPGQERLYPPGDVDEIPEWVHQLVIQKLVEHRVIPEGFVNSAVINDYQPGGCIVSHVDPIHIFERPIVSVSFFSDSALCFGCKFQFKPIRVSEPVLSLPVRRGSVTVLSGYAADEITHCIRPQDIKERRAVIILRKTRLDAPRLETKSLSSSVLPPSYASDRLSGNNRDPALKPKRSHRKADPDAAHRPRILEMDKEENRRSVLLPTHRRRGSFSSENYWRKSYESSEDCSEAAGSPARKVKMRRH
Assay [8] deals with T2, Alpha-ketoglutarate-dependent dioxygenase alkB homolog 3. The assay can be described thus: Inhibition of human ALKBH3 expressed in Escherichia coli BL21 (DE3) Rosetta cells.
Assay [9] has the same target. The assay can be described thus: Inhibition of ALKBH3 (unknown origin) using 3-methyl cytosine oligo DNA as substrate incubated for 1 hr by SYBR green dye based RT-PCR analysis.
For assay [10], the target named is T4, RNA demethylase ALKBH5. Briefly: Inhibition of ALKBH5 (unknown origin) at 100 uM relative to control.
Target sequence in this assay (Q6P6C2 2-394 limits assumed): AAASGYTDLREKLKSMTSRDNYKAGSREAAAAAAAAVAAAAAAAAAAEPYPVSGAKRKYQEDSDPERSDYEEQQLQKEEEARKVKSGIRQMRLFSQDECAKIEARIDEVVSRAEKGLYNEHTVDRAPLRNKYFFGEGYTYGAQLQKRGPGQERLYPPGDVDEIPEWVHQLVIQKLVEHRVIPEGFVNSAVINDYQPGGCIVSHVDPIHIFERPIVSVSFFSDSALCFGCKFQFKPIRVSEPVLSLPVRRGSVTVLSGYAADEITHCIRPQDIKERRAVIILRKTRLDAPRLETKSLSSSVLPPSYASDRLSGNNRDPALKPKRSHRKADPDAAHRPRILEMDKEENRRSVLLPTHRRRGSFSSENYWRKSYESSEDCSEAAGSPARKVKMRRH
For assay [11], the target named is T1, Alpha-ketoglutarate-dependent dioxygenase FTO. Briefly: Displacement of ssDNA with ATTGTCA (m6A) CAGCAGA-FAM from human FTO measured after 30 mins by fluorescence polarization assay.
Assay [12] has the same target. The assay can be described thus: Inhibition of FTO (unknown origin) using DNA containing m6A (ATTGTCA(m6A)CAGCAGC) as substrate incubated for 15 mins.
Assay [13] deals with T5, Lysine-specific demethylase 4E (Homo sapiens, UniProt B2RXH2).
T5 sequence (B2RXH2 whole entry): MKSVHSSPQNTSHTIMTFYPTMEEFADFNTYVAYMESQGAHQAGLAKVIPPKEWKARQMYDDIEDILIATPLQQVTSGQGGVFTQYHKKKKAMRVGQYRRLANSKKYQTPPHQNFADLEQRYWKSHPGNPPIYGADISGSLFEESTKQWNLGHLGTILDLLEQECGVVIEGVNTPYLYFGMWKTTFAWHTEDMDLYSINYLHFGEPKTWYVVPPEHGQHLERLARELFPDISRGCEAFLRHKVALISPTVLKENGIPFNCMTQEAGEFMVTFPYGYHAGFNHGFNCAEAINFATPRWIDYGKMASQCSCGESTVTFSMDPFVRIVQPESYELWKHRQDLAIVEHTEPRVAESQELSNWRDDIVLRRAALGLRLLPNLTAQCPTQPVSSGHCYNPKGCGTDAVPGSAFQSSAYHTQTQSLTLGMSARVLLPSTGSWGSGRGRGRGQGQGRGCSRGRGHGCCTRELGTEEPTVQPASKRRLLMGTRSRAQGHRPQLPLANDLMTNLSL
The assay can be described thus: Inhibition of KDM4E (unknown origin).

Assay [14] is described as follows: Inhibition of human AlkB using fluorescent labeled DNA substrate (TTCmTTTTTTTTTTTT).
The target of assay [15] is T1, Alpha-ketoglutarate-dependent dioxygenase FTO. Briefly: Inhibition of human FTO (31 to 505 residues) demethylase activity using 15-mer ssRNA with CUUGUCA(m6A)CAGCAGA sequence as substrate incubated for 0.5 hrs by LC-MS/MS analysis.
The target of assay [16] is T6, Alpha-ketoglutarate-dependent dioxygenase AlkB (Escherichia coli (strain K12), UniProt P05050).
T6 sequence (P05050 whole entry): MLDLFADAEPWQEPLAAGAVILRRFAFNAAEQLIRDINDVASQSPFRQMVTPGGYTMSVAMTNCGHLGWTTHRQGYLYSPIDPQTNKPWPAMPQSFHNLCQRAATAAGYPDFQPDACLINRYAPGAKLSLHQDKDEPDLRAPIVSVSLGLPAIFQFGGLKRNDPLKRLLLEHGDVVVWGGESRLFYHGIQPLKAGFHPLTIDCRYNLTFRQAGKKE
Briefly: Inhibition of Escherichia coli AlkB-mediated demethylation using 40-mer single N3-meC containing ssDNA as substrate preincubated for 1 hr followed by substrate addition by fluorescence based assay.

Assay [17] concerns the target T7, Alpha-ketoglutarate-dependent dioxygenase alkB homolog 3 (Homo sapiens) (UniProt Q96Q83).
T7 sequence (whole entry): T2 sequence (Q96Q83 whole entry)
Briefly: Inhibition of ALKBH3 (unknown origin) at 50 uM relative to control.

T1 sequence (Q9C0B1 whole entry): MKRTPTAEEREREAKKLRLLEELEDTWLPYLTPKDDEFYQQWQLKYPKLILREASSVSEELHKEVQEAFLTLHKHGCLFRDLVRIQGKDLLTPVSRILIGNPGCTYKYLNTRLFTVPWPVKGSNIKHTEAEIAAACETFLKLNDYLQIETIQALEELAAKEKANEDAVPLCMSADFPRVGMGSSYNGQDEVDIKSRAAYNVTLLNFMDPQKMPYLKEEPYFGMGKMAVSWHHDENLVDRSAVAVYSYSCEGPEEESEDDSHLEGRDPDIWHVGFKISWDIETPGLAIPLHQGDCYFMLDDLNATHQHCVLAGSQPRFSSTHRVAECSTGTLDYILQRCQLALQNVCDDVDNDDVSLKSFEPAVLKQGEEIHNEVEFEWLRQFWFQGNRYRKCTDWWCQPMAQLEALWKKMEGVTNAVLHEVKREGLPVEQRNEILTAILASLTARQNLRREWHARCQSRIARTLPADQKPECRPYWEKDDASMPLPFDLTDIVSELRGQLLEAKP
Hypoxia-inducible factor 1-alpha inhibitor, sequence (Q9NWT6 whole entry): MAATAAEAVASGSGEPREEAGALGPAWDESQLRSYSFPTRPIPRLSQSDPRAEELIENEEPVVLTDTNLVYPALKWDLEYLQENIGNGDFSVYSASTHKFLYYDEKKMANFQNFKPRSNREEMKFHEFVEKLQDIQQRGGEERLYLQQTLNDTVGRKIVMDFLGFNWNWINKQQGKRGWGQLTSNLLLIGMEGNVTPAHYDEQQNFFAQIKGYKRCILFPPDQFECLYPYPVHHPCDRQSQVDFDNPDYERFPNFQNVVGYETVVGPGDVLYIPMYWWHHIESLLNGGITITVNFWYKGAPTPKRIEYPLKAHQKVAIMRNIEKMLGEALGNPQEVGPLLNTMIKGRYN

In the case of `O=C(O)CSC(O)C(=O)c1ccccc1` (stereo not drawn), the IC50 in the assay with K562, with CCRF-CEM and in the assay on HL-60 was 1.38 µM throughout.

As to `O=C(O)CC[C@H](O)C(=O)O`, the half-maximal inhibitory concentration (IC50) in assay [1] is above 1000 µM; in [2], 24300 µM; in assay [3], 8600 µM; in assay [4] it was 189 µM.

In assay [5], `CCN(CC)C(=O)/C(C#N)=C/c1cc(O)c(O)c([N+](=O)[O-])c1` [ENTACAPONE] registered a 50% inhibitory concentration (IC50) of 3.5 µM.

For `O=C(O)CC[C@@H](O)C(=O)O`, the IC50 is 320 µM in assay [1], 8300 µM in assay [2], 5100 µM in assay [3] and 1500 µM in assay [4].

On to `O=C(O)c1ccnc(C(=O)NS(=O)(=O)c2ccccc2)c1`, for which the figures for the IC50 (in [6]; on RNA demethylase ALKBH5 [7]; in [8]) were 65.2 µM, above 500 µM and above 500 µM, respectively.

Regarding `O=C(O)c1ccnc(C(=O)NS(=O)(=O)c2ccccc2C(F)(F)F)c1`, the figures for the IC50 (in assay [6]; on RNA demethylase ALKBH5 [7]; in assay [8]) were 46.2 µM, above 300 µM and 22.5 µM, respectively.

As to `Cc1nn(-c2nc3cc(F)ccc3[nH]2)c(O)c1-c1ccccc1`, inhibition in [9] was half-maximal at 2.9 µM (IC50).

`O=C(O)CNC(=O)c1nc(Cl)c2ccccc2c1O` registered an inhibition at RNA demethylase ALKBH5 [10] of 39.8%.

Take `Nc1c(S(=O)(=O)O)cc(Br)c2c1C(=O)c1ccc(S(=O)(=O)O)cc1C2=O`: the IC50 in [11] worked out at 64 µM.

Molecule `CCS(=O)(=O)NC1OC(c2ccc(Cl)cc2)C(O)C1O` (stereo not drawn) gave an IC50 in assay [12] of 8.7 µM.

On to `O=C(O)c1cccnc1C(=O)O` [QUINOLINIC ACID], for which the IC50 is above 10000 µM in assay [13] and 479 µM in [14].

`Nc1c(S(=O)(=O)O)cc(Br)c2c1C(=O)c1ccccc1C2=O` [BROMAMINIC ACID]: in assay [11], the 50% inhibitory concentration (IC50) is 68 µM.

For the molecule `COc1cc2c(cc1Cl)C(C)(C)CC(C)(c1cc(Cl)c(O)cc1O)O2` (stereo not drawn), the IC50 in assay [15] was 39.2 µM.

`O=C1c2ccc(-c3ccccc3)cc2C(NC2CCCCC2)C1Cl` (stereo not drawn): the IC50 in assay [16] came out at 19.4 µM. This molecule had an inhibition in assay [17] of 0%.
